Results reported in US20220304964A1, “PARA-AMINOHIPPURIC ACID (PAH) AS A RENAL PROTECTIVE SUBSTANCE” (ITM Isotope Technologies Munich SE, priority 2019, published 2022).
Where two headings read alike, the source gives them in different places.

Experiments:
healthy Wistar rats [1] = experiment: Kidneys uptake of [^177Lu-DOTA^o-Tyr3]-octreotide by quantitative small animal SPECT with co-infusion of kidney protection agent; assay type: in vivo; details: vs 0.9% NaCl co-infusion
Procedure: Imaging acquisition was performed after 0.5 h, 1 h, 4 h, 8 h, 24 h p.i.
(§1) For statistical analysis Microsoft Excel 2010 and Graphpad Prism 6.05 were employed. Data are presented as median and [25% and 75% percentile] and mean and standard deviation (SD) or standard error of mean (SEM). For comparison, ordinary one way ANOVA and Tukey's multiple comparisons test, two-sample two-tailed t-test were employed. Significance was accepted with P<0.05.

male Wistar rats = experiment: Ex-vivo organ distribution of [^177Lu-DOTA^o-Tyr3]-octreotide after pre-/co-injection of NaCl, Arg-Lys or PAH; assay type: in vivo; details: 5 min and 60 min p.i., N=5, with respect to NaCl infusions
Procedure: All animals were pre-injected 10 min before the radiotracer injection with 1.0 mL of NaCl, Arg-Lys or PAH.
The animals were injected and sacrificed after 5 min or 60 min. Organs and tissue of interest were harvested and measured for activity. […] The average injected activity was 4.49±0.38 MBq/kg body weight (5 min) and 159±13 MBq/kg body weight (5 min) for the SPECT and 4.19±0.57 MBq/kg body weight (60 min) or 139±8 MBq/kg body weight for the SPECT animals (60 min).
as §1
The results are graphically illustrated in FIG. 5.

healthy Wistar rats [2] = experiment: SPECT/CT kidney and blood (heart) radioactivity of ^177Lu-labeled DOTA compounds with co-injection of PAH or saline; assay type: in vivo; details: ^177Lu-DOTA-Affilin
Procedure: (§2) The tracer distribution of the radiolabeled test compounds were performed in two distinct cohorts of healthy Wistar rats with focus on the kidney uptake/clearance and blood levels. […] Each cohort comprises at least 3 rats for statistic matters.
Testing parameters were provided for each compound, RCP >95%.
The percentage of injected radioactivity present in the kidneys over time was determined according to the above protocol. The results are graphically illustrated in FIG. 6.
The percentage of injected radioactivity present in blood over time was determined according to the above protocol. The results are graphically illustrated in FIG. 7.

healthy Wistar rats [3] = experiment: PET/CT kidney and blood radioactivity of ^68Ga-labeled HBED-CC-PSMA-11 with co-injection of PAH or saline; assay type: in vivo; details: PAH 200 mg/mL vs 0.9% NaCl; 0.1, 0.5, 1, 2, 4 h; FIG. 8
Procedure: as §2
Mice were injected with diagnostic ^68Ga-labeled PSMA-11 conjugated with acyclic chelator HBED-CC, and co-injected with PAH (200 mg/mL) or saline (0.9% NaCl) as a control. The percentage of injected radioactivity present in kidney (upper lane) and blood (lower lane) over time was determined according to the above protocol. The results are graphically illustrated in FIG. 8.

AR42J tumor mouse model = experiment: Comparative biodistribution of ^177Lu-DOTATOC i.v. after i.p. PAH or saline; assay type: in vivo, CD1 nude mice; details: FIG. 9
Procedure: Mice (3 animals per group) were sacrificed at 0.5 h, 1 h, 2 h, and 4 h, respectively. The organs were quickly rinsed in 0.9% NaCl and dried before being weighed and counted to eliminate possible contaminating blood. […] Data from organ/tissue counting are expressed as percentage of injected dose (% ID/g)).

mice = experiment: Comparative biodistribution of ^99mTc-Etarfolatide given with PAH or saline; assay type: in vivo; details: PAH IP 10 min prior + tracer diluted in PAH vs saline; after 30 min; FIG. 10
Procedure: 30 mice (male and female) were randomly assigned to two groups.
Group A: The mice were injected with ^99mTc Etarfolatide diluted in PAH (2.04 μg Etarfolatide/mouse) after having received an IP injection of PAH 10 min prior to radiotracer injection. Five time-points were assessed: 5 min, 30 min, 1 h, 2 h, 4 h (3 mice per time-point).
Group B: The mice were injected with ^99mTc Etarfolatide diluted in saline (2.04 μg Etarfolatide/mouse) after having received an IP injection of saline 10 min prior to radiotracer injection. Five time-points were assessed: 5 min, 30 min, 1 h, 2 h, 4 h (3 mice per time-point).

[4] = test system: Laboratory Rat (Rattus norwegicus), Lewis; experiment: SPECT biodistribution of ^177Lu-PSMA I&T with kidney protection agents (PAH, Probenecid, saline); assay type: in vivo; details: for radioactivity in kidney cells (^177Lu-PSMA I&T): compared to the saline control (PAH also compared to probenecid), FIGS. 11 to 14
From the text: The protocol was executed in a way to test the radioactivity concentration of the kidneys in groups of animals injected with one TA but three different KP agents in three separate groups. Thus, the following matrix of experimental groups was formed.

[5] = low plasma concentrations (1.0 to 2.0 mg/100 mL); average; cited from earlier work
female mice = details: cited from earlier work
rats = details: Natochin et al. 1989; cited from earlier work
patients = details: cited from earlier work
[6] = Radiolabel stability of ^99mTc-Etarfolatide (HPLC, ITLC-SG); assay type: physicochemical; details: 24 h post-preparation
Procedure: Radiolabeling efficiency and stability was determined using: (i) Instant thin layer chromatography-silica gel (ITLC-SG) with water (Rf of ^99mTc-Etarfolatide and free pertechnetate=0.9-1.0; Rf of colloid=0.0-0.1) and acetone (Rf of free pertechnetate=0.9-1.0; Rf of colloid and ^99mTc-Etarfolatide=0.0-0.1) as the mobile phases and (ii) RP-HPLC: Solvent A: 0.1% TFA in H2O. Solvent B: 0.1% TFA in AcCN; Gradient Elution, flow rate 1 mL/min.
On each day of experimentation, a new radiolabeling procedure was performed with approximately the same ^99mTc activity.
The volume of the radiolabeled folate was measured to be 1300 μL, while the activity was 734 MBq (Day of experimentation: March 4th). A sample corresponding to 300 MBq (i.e. 15 MBq×20 mice) was prepared. 531 μL were taken from the radiolabeled folate, which was diluted with either 1469 μL Saline or 1469 μL PAH (2000 μL 99mTc-etarfolatide, 100 μL/15 MBq per mouse). Before injection, the sample was filtered through a […] sterile filter. The injected 15 MBq/mouse corresponds to 2.04 μg Etarfolatide/mouse (injected quantity of Etarfolatide was kept stable throughout the experiment).

[7] = group B (PAH) compared to group A (NaCl)
[8] = at all time points (0.5-4 h), vs saline

Nc1ccc(C(=O)NCC(=O)O)cc1 [PAH, para-aminohippuric acid]
kidney uptake reduction of [^177Lu-DOTA^o-Tyr3]-octreotide (healthy Wistar rats [1]; 0.5 h post injection): 50%
kidney uptake reduction of [^177Lu-DOTA^o-Tyr3]-octreotide (healthy Wistar rats [1]; after 8 h): 56%
kidney uptake reduction of [^177Lu-DOTA^o-Tyr3]-octreotide (healthy Wistar rats [1]; after 24 h): 50%
ex-vivo uptake of [^177Lu-DOTA^o-Tyr3]-octreotide in the kidneys (male Wistar rats): significantly reduced the uptake in the kidneys
kidney uptake of Affilin (healthy Wistar rats [2]; PAH 200 mg/mL vs 0.9% NaCl, versus the other compounds tested): less prominently reduced
blood activity of Affilin (percentage of injected radioactivity in blood) (healthy Wistar rats [2]; co-injected PAH 200 mg/mL vs 0.9% NaCl, FIG. 7): significant increase of blood activity
kidney uptake of radiolabeled compounds (percentage of injected radioactivity in kidneys) (healthy Wistar rats [2]; ^177Lu-DOTA-RGD, ^177Lu-DOTA-Sargastrin, ^177Lu-DOTA-JR11, PAH 200 mg/mL vs 0.9% NaCl, 0.5, 1, 4, 24 h, FIG. 6): significant effect in reduction of kidney uptake
kidney uptake of ^68Ga-labeled HBED-CC conjugated PSMA-11 (healthy Wistar rats [3]): significant reduction of kidney uptake
^177Lu-DOTATOC uptake in kidneys (AR42J tumor mouse model; group B (PAH 20% i.p. 50 μL + ^177Lu-DOTATOC/PAH) vs group A (NaCl 0.9%), 0.5-4 h): significant decrease
^177Lu-DOTATOC level in blood (AR42J tumor mouse model; [7]): significantly increased
^177Lu-DOTATOC level in tumor (AR42J tumor mouse model; [7]): significantly increased
renal uptake of ^99mTc-Etarfolatide (mice): decreased renal uptake
renal cortex radioactivity (^177Lu-PSMA I&T) [4, 8]: reduced radioactivity
renal medulla radioactivity (^177Lu-PSMA I&T) [4, 8]: reduced radioactivity
radioactivity in kidney cells (^177Lu-PSMA I&T) [4]: marked reduction of radioactivity
PAH cleared by the kidneys from the renal blood stream by a single circulation [5]: 90%
intravenous LD 50 (female mice): 7220 mg/kg
effect on cisplatin's nephrotoxic effects (rats): reduce cisplatin's nephrotoxic effects

NCCCC[C@H](N)C(=O)O [lysine]
Kidney uptake reduction of radiolabeled octreotide (patients; 25 g of lysine, P<0.04): 17%+/−9%
Kidney uptake reduction of radiolabeled octreotide (patients; 50 g of lysine, P<0.04): 15%+/−13%
serum potassium levels (patients; 75 g of lysine (Lys75) or 25 g lysine plus 25 g arginine (LysArg)): rose significantly
Kidney uptake reduction of radiolabeled octreotide (patients; 75 g of lysine, P<0.001): 44%+/−11%

C=C(CC)C(=O)c1ccc(OCC(=O)O)c(Cl)c1Cl [ethacrynic acid]
effect on cisplatin's nephrotoxic effects (rats): reduce cisplatin's nephrotoxic effects

C[N+](C)(C)CCO.[Cl-] [Choline chloride]
effect on cisplatin's nephrotoxic effects (rats): reduce cisplatin's nephrotoxic effects

CCCN(CCC)S(=O)(=O)c1ccc(C(=O)O)cc1 [Probenecid]
radioactivity in kidney cells (^177Lu-PSMA I&T) [4]: no effect

NS(=O)(=O)c1cc(C(=O)O)c(NCc2ccco2)cc1Cl [fursosemide]
effect on cisplatin's nephrotoxic effects (rats): reduce cisplatin's nephrotoxic effects

Nc1nc2ncc(CNc3ccc(C(=O)N[C@H](CCC(=O)NC[C@@H]4[NH][99Tc]56(=[O])[S]C[C@@H](C(=O)O)[N]5C(=O)[C@H](CC(=O)O)[N]6C4=O)C(=O)O)cc3)nc2c(=O)[nH]1 [^99mTc-Etarfolatide]
Stability of radiolabel by HPLC [6]: no loss of radiolabel
